Results from PubChem BioAssay (NCI).
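All cell lines were grown in 96-well plates and treated with compound for 48 hours. The concentration for 50% growth inhibition is given as GI50. The concentration for full growth arrest is given as TGI.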

Tests used:
Assay in all cases: NCI anticancer screen, dose series, 48 h
NCI-H226 lung = test system: NCI-H226 lung
NCI-H23 lung = test system: NCI-H23 lung
NCI-H460 lung = test system: NCI-H460 lung
NCI/ADR-RES ovarian = test system: NCI/ADR-RES ovarian
OVCAR-3 ovarian = test system: OVCAR-3 ovarian
OVCAR-4 ovarian = test system: OVCAR-4 ovarian
OVCAR-5 ovarian = test system: OVCAR-5 ovarian
OVCAR-8 ovarian = test system: OVCAR-8 ovarian
PC-3 prostate = test system: PC-3 prostate
RPMI-8226 leukemia = test system: RPMI-8226 leukemia
RXF 393 renal = test system: RXF 393 renal
SF-268 CNS = test system: SF-268 CNS
SF-295 CNS = test system: SF-295 CNS
SF-539 CNS = test system: SF-539 CNS
SK-MEL-2 melanoma = test system: SK-MEL-2 melanoma
SK-MEL-28 melanoma = test system: SK-MEL-28 melanoma
SK-MEL-5 melanoma = test system: SK-MEL-5 melanoma
SK-OV-3 ovarian = test system: SK-OV-3 ovarian
SN12C renal = test system: SN12C renal
SNB-19 CNS = test system: SNB-19 CNS
SNB-75 CNS = test system: SNB-75 CNS
SR leukemia = test system: SR leukemia
SW-620 colon = test system: SW-620 colon
T-47D breast = test system: T-47D breast
TK-10 renal = test system: TK-10 renal
U251 CNS = test system: U251 CNS
UACC-257 melanoma = test system: UACC-257 melanoma
UACC-62 melanoma = test system: UACC-62 melanoma
UO-31 renal = test system: UO-31 renal

CCOC(=O)c1c(NCC(=O)Nc2ccc(Br)cc2)sc2c1CCCC2
TGI (NCI-H226 lung): 6.48 µM | GI50 (NCI-H23 lung): 1.81 µM | TGI (NCI-H23 lung): 4.6 µM | GI50 (NCI-H460 lung): 1.94 µM | TGI (NCI-H460 lung): 4.31 µM | GI50 (NCI/ADR-RES ovarian): 2.6 µM | TGI (NCI/ADR-RES ovarian): 8.51 µM | GI50 (OVCAR-3 ovarian): 1.61 µM | TGI (OVCAR-3 ovarian): 3.12 µM | GI50 (OVCAR-4 ovarian): 1.74 µM | TGI (OVCAR-4 ovarian): 4.77 µM | GI50 (OVCAR-5 ovarian): 2.02 µM | TGI (OVCAR-5 ovarian): 3.77 µM | GI50 (OVCAR-8 ovarian): 4 µM | TGI (OVCAR-8 ovarian): > 100 µM | GI50 (PC-3 prostate): 2.46 µM | TGI (PC-3 prostate): 9.71 µM | GI50 (RPMI-8226 leukemia): 2.09 µM | TGI (RPMI-8226 leukemia): 5.32 µM | GI50 (RXF 393 renal): 1.34 µM | TGI (RXF 393 renal): 2.76 µM | GI50 (SF-268 CNS): 2.06 µM | TGI (SF-268 CNS): 8.24 µM | GI50 (SF-295 CNS): 3.95 µM | TGI (SF-295 CNS): 14.3 µM | GI50 (SF-539 CNS): 1.73 µM | TGI (SF-539 CNS): 3.18 µM | GI50 (SK-MEL-2 melanoma): 1.84 µM | TGI (SK-MEL-2 melanoma): 5.49 µM | GI50 (SK-MEL-28 melanoma): 1.71 µM | TGI (SK-MEL-28 melanoma): 3.49 µM | GI50 (SK-MEL-5 melanoma): 1.65 µM | TGI (SK-MEL-5 melanoma): 3.08 µM | GI50 (SK-OV-3 ovarian): 3.49 µM | TGI (SK-OV-3 ovarian): 10.9 µM | GI50 (SN12C renal): 2.51 µM | TGI (SN12C renal): 7.16 µM | GI50 (SNB-19 CNS): 2.2 µM | TGI (SNB-19 CNS): 6.31 µM | GI50 (SNB-75 CNS): 2.22 µM | TGI (SNB-75 CNS): 14.3 µM | GI50 (SR leukemia): 1.22 µM | TGI (SR leukemia): 5.33 µM | GI50 (SW-620 colon): 2.28 µM | TGI (SW-620 colon): 6.1 µM | GI50 (T-47D breast): 1.76 µM | TGI (T-47D breast): 4.61 µM | GI50 (TK-10 renal): 1.74 µM | TGI (TK-10 renal): 3.46 µM | GI50 (U251 CNS): 1.51 µM | TGI (U251 CNS): 3.17 µM | GI50 (UACC-257 melanoma): 2.8 µM | TGI (UACC-257 melanoma): 8.2 µM | GI50 (UACC-62 melanoma): 1.48 µM | TGI (UACC-62 melanoma): 3.16 µM | GI50 (UO-31 renal): 1.5 µM | TGI (UO-31 renal): 3.3 µM
